Experimental data published in paper PMC11005723, “Development of Complementary Photo‐arginine/lysine to Promote Discovery of Arg/Lys hPTMs Interactomes” (Advanced Science, 2024).
Non-standard residues stand in square brackets, D forms with d. No end group written: not given here. *: point of attachment. Biotin = O=C1N[C@H]2[C@H](CS[C@H]2CCCCC(=O)*)N1; R(dz) = photo-arginine

System: HEK293T nuclear lysates
Assay: SILAC‐based pull‐down proteomics H4K5acK8ac/H4K5 (probes 8/5)
Type: binding, human
Details: for B6 log2 (H4K5ac8ac/H4K5): replicate B6; for A6 log2 (H4K5ac8ac/H4K5): replicate A6
[1] = protein YWHAB, Bos taurus (CON_00829553.1)

probe 8: H4K5acK8ac peptide probe with photo‐arginine R(dz) and K(biotin) (SG[R(dz)]GK(Ac)GGK(Ac)GLGKGGK(Biotin))
B6 log2 (H4K5ac8ac/H4K5) (protein MYH9 (P35579)): -0.04782
A6 log2 (H4K5ac8ac/H4K5) (protein NAA10 (P41227)): -0.3046
B6 log2 (H4K5ac8ac/H4K5) (protein NAA10 (P41227)): 0.05206
A6 log2 (H4K5ac8ac/H4K5) (protein NACC1 (Q96RE7)): 0.2811
B6 log2 (H4K5ac8ac/H4K5) (protein NACC1 (Q96RE7)): 0.03418
A6 log2 (H4K5ac8ac/H4K5) (protein NFXL1 (Q6ZNB6)): 0.2111
B6 log2 (H4K5ac8ac/H4K5) (protein NFXL1 (Q6ZNB6)): 0.02469
A6 log2 (H4K5ac8ac/H4K5) (protein NOL9 (Q5SY16)): -0.2567
B6 log2 (H4K5ac8ac/H4K5) (protein NOL9 (Q5SY16)): -0.02031
A6 log2 (H4K5ac8ac/H4K5) (protein PA2G4 (Q9UQ80)): 0.1563
B6 log2 (H4K5ac8ac/H4K5) (protein PA2G4 (Q9UQ80)): 0.03904
A6 log2 (H4K5ac8ac/H4K5) (protein PACSIN2 (Q9UNF0)): 0
B6 log2 (H4K5ac8ac/H4K5) (protein PACSIN2 (Q9UNF0)): -0.04928
A6 log2 (H4K5ac8ac/H4K5) (protein PBX1 (A0A087X0P4)): 0.6964
B6 log2 (H4K5ac8ac/H4K5) (protein PBX1 (A0A087X0P4)): 0.06283
A6 log2 (H4K5ac8ac/H4K5) (protein POLR1A (B9ZVN9)): 0.06415
B6 log2 (H4K5ac8ac/H4K5) (protein POLR1A (B9ZVN9)): -0.04145
A6 log2 (H4K5ac8ac/H4K5) (protein PPA1 (Q15181)): 0.1577
B6 log2 (H4K5ac8ac/H4K5) (protein PPA1 (Q15181)): 0.07333
A6 log2 (H4K5ac8ac/H4K5) (protein PPP1CB (P62140)): -0.299
B6 log2 (H4K5ac8ac/H4K5) (protein PPP1CB (P62140)): -0.01665
A6 log2 (H4K5ac8ac/H4K5) (protein PPWD1 (F5H7P7)): -0.2794
B6 log2 (H4K5ac8ac/H4K5) (protein PPWD1 (F5H7P7)): -0.02682
A6 log2 (H4K5ac8ac/H4K5) (protein PRPF4 (O43172)): -0.3068
B6 log2 (H4K5ac8ac/H4K5) (protein PRPF4 (O43172)): -0.007391
A6 log2 (H4K5ac8ac/H4K5) (protein PRPF19 (Q9UMS4)): -0.3378
B6 log2 (H4K5ac8ac/H4K5) (protein PRPF19 (Q9UMS4)): 0.03114
A6 log2 (H4K5ac8ac/H4K5) (protein RAB18 (Q9NP72)): -0.7664
B6 log2 (H4K5ac8ac/H4K5) (protein RAB18 (Q9NP72)): 0.06785
A6 log2 (H4K5ac8ac/H4K5) (protein RBBP4 (Q09028)): -0.301
B6 log2 (H4K5ac8ac/H4K5) (protein RBBP4 (Q09028)): -0.04139
A6 log2 (H4K5ac8ac/H4K5) (protein RBBP5 (Q15291)): 0.327
B6 log2 (H4K5ac8ac/H4K5) (protein RBBP5 (Q15291)): 0.03881
A6 log2 (H4K5ac8ac/H4K5) (protein RBM17 (Q5W011)): -0.1033
B6 log2 (H4K5ac8ac/H4K5) (protein RBM17 (Q5W011)): -0.0008232
A6 log2 (H4K5ac8ac/H4K5) (protein RFC4 (C9JTT7)): -0.05533
B6 log2 (H4K5ac8ac/H4K5) (protein RFC4 (C9JTT7)): 0.05642
A6 log2 (H4K5ac8ac/H4K5) (protein RIF1 (Q5UIP0)): 0.1175
B6 log2 (H4K5ac8ac/H4K5) (protein RIF1 (Q5UIP0)): 0.06957
A6 log2 (H4K5ac8ac/H4K5) (protein RLTPR (Q6F5E8)): 0.7852
B6 log2 (H4K5ac8ac/H4K5) (protein RLTPR (Q6F5E8)): 0.007574
A6 log2 (H4K5ac8ac/H4K5) (protein RNF113A (O15541)): -0.4653
B6 log2 (H4K5ac8ac/H4K5) (protein RNF113A (O15541)): 0.03846
A6 log2 (H4K5ac8ac/H4K5) (protein RPL18A (M0R3D6)): -0.4315
B6 log2 (H4K5ac8ac/H4K5) (protein RPL18A (M0R3D6)): -0.04492
A6 log2 (H4K5ac8ac/H4K5) (protein RPL23 (P62829)): -0.1756
B6 log2 (H4K5ac8ac/H4K5) (protein RPL23 (P62829)): 0.05216
A6 log2 (H4K5ac8ac/H4K5) (protein SART1 (O43290)): -0.3683
B6 log2 (H4K5ac8ac/H4K5) (protein SART1 (O43290)): 0.001654
A6 log2 (H4K5ac8ac/H4K5) (protein SEPT9 (Q9UHD8)): 0.1535
B6 log2 (H4K5ac8ac/H4K5) (protein SEPT9 (Q9UHD8)): -0.026
A6 log2 (H4K5ac8ac/H4K5) (protein SKP1 (E5RJR5)): -0.01806
B6 log2 (H4K5ac8ac/H4K5) (protein SKP1 (E5RJR5)): 0.0159
A6 log2 (H4K5ac8ac/H4K5) (protein SMARCC1 (Q92922)): -0.08326
B6 log2 (H4K5ac8ac/H4K5) (protein SMARCC1 (Q92922)): 0.04543
A6 log2 (H4K5ac8ac/H4K5) (protein SMC4 (E9PD53)): -0.08362
B6 log2 (H4K5ac8ac/H4K5) (protein SMC4 (E9PD53)): 0.02245
A6 log2 (H4K5ac8ac/H4K5) (protein SRP9 (P49458)): -0.01043
B6 log2 (H4K5ac8ac/H4K5) (protein SRP9 (P49458)): 0.03654
A6 log2 (H4K5ac8ac/H4K5) (protein SRPRB (H7C4H2)): 0.3686
B6 log2 (H4K5ac8ac/H4K5) (protein SRPRB (H7C4H2)): 0.07795
A6 log2 (H4K5ac8ac/H4K5) (protein STRAP (Q9Y3F4)): 0.01226
B6 log2 (H4K5ac8ac/H4K5) (protein STRAP (Q9Y3F4)): 0.01225
A6 log2 (H4K5ac8ac/H4K5) (protein STUB1 (Q9UNE7)): 0.5197
B6 log2 (H4K5ac8ac/H4K5) (protein STUB1 (Q9UNE7)): 0.03834
A6 log2 (H4K5ac8ac/H4K5) (protein SUGP2 (M0R3F6)): -0.3599
B6 log2 (H4K5ac8ac/H4K5) (protein SUGP2 (M0R3F6)): 0.02065
A6 log2 (H4K5ac8ac/H4K5) (protein SYMPK (Q92797)): -0.08997
B6 log2 (H4K5ac8ac/H4K5) (protein SYMPK (Q92797)): -0.0308
A6 log2 (H4K5ac8ac/H4K5) (protein TBC1D4 (O60343)): 0.1383
B6 log2 (H4K5ac8ac/H4K5) (protein TBC1D4 (O60343)): -0.03399
A6 log2 (H4K5ac8ac/H4K5) (protein TBL3 (Q12788)): -0.1597
B6 log2 (H4K5ac8ac/H4K5) (protein TBL3 (Q12788)): -0.02533
A6 log2 (H4K5ac8ac/H4K5) (protein TKT (P29401)): -0.1341
B6 log2 (H4K5ac8ac/H4K5) (protein TKT (P29401)): 0.0497
A6 log2 (H4K5ac8ac/H4K5) (protein TMPO (P42167)): 0.4117
B6 log2 (H4K5ac8ac/H4K5) (protein TMPO (P42167)): 0.03759
A6 log2 (H4K5ac8ac/H4K5) (protein TTLL12 (Q14166)): 0.2441
B6 log2 (H4K5ac8ac/H4K5) (protein TTLL12 (Q14166)): 0.0292
A6 log2 (H4K5ac8ac/H4K5) (protein TXLNG (Q9NUQ3)): 0.4545
B6 log2 (H4K5ac8ac/H4K5) (protein TXLNG (Q9NUQ3)): -0.0116
A6 log2 (H4K5ac8ac/H4K5) (protein UHRF1 (Q96T88)): -0.6652
B6 log2 (H4K5ac8ac/H4K5) (protein UHRF1 (Q96T88)): 0.04746
A6 log2 (H4K5ac8ac/H4K5) (protein UHRF2 (Q96PU4)): -0.006334
B6 log2 (H4K5ac8ac/H4K5) (protein UHRF2 (Q96PU4)): 0.0767
A6 log2 (H4K5ac8ac/H4K5) (protein UPF1 (Q92900)): -0.46
B6 log2 (H4K5ac8ac/H4K5) (protein UPF1 (Q92900)): -0.01045
A6 log2 (H4K5ac8ac/H4K5) (protein VAPB (O95292)): -0.312
B6 log2 (H4K5ac8ac/H4K5) (protein VAPB (O95292)): 0.06269
A6 log2 (H4K5ac8ac/H4K5) (protein WAPAL (Q7Z5K2)): 0.1532
B6 log2 (H4K5ac8ac/H4K5) (protein WAPAL (Q7Z5K2)): -0.009146
A6 log2 (H4K5ac8ac/H4K5) (protein XRCC5 (P13010)): -0.05414
B6 log2 (H4K5ac8ac/H4K5) (protein XRCC5 (P13010)): -0.03221
A6 log2 (H4K5ac8ac/H4K5) [1]: -0.1065
B6 log2 (H4K5ac8ac/H4K5) [1]: 0.02961
A6 log2 (H4K5ac8ac/H4K5) (protein ZNF330 (Q9Y3S2)): 0.1967
B6 log2 (H4K5ac8ac/H4K5) (protein ZNF330 (Q9Y3S2)): -0.03674
A6 log2 (H4K5ac8ac/H4K5) (protein ZNF579 (Q8NAF0)): -0.0908
B6 log2 (H4K5ac8ac/H4K5) (protein ZNF579 (Q8NAF0)): 0.0364
A6 log2 (H4K5ac8ac/H4K5) (protein ZZZ3 (Q8IYH5)): -0.06959
B6 log2 (H4K5ac8ac/H4K5) (protein ZZZ3 (Q8IYH5)): -0.004188
